Laboratory results taken from patent publication US20240093034A1, “FLUORESCENT DYES” (EXOPHARM LIMITED, priority 2020, published 2024).

Tests used:
platelet-derived EVs = test: Labelling of extracellular vesicles with dyes (Superose 6 HPLC, UV and FLD detection); conditions: EV + 2 μM dye
Experimental: Labelling of extracellular vesicles (EVs) with dyes 1-10 was performed according to the following procedure. 20 μL of platelet-derived EVs were incubated in HPLC vials with or without each dye at a final concentration of 2 μM dye, the dye stock solution being made up in water. For negative controls, an equivalent volume of the diluent solution was added to the EV solution. The sample was mixed gently. Each sample was subsequently incubated for 1 hr at 37° C. Samples were transferred and stored in the autosampler set at 4° C. A batch table was setup that injected unlabelled EVs prior to labelled EVs. A blank injection was run after each labelled EV experiment to ensure there was no carryover. 15 μL of each sample was injected onto a Superose 6 Increase column (3.2/300) from Cytiva. The flow rate was set at 0.15 mL min* The Shimadzu BioHPLC was run in isocratic mode with Buffer A: 1× PBS (phosphate-buffered saline), pH 7.4, 100 nm filtered. The column oven temperature was set at 30° C. Total run duration was 30 min. Data was collected using two detectors. The PDA (UV detector) was set to scan from 190-800 nm and a channel of the FLD (fluorescence detector) was set at 562 nm/583 nm (Ex/Em). Titration experiments were conducted to confirm that excess dye was removed. The areas of the void peaks from the 214 nm absorption and the 583 nm emission were calculated by the LabSolutions software using the manual integration function. To normalise the fluorescent signal, the total fluorescent area was divided by the UV 214 nm area. This ratio can be used to rank each dye, with higher ratios indicative of greater incorporation.

[1] = tested on: normal human dermal fibroblasts (NHDF); test: Labelling of human cells with dyes (plate fluorescence); assay type: cell-based; conditions: 2 μM dye, 1 hr 37° C., washed with HBSS; higher = more incorporation
Experimental: Labelling of human cells with dyes 1-10 was performed according to the following procedure. Each well of a Costar 96 well flat bottom plate was seeded with 5,000 normal human dermal fibroblasts (NHDF; not older than P9) and allowed to attach overnight in full media: fibroblast growth media (Lonza)+2% v/v fetal calf serum. Each dye was diluted 1:50 from a stock of 1 mM with 10 mM L-histidine, 150 mM NaCl, pH 6.0, to a final concentration of 20 μM. The dye was subsequently added to full media at a further 1:10 dilution to a final concentration of 2 μM. The media on the cells was subsequently replaced with the freshly prepared full media containing the dye. For negative controls, an equivalent volume of the diluent solution was added to the cell solution. Cells were incubated for 1 hr at 37° C. and then washed with 1 xHBSS (Hank's balanced salt solution) to remove free dye. Plate was imaged using the CLARIOStar spectrophotometer (5x5 matrix mode, average of 25 data points, 3 wells for each dye). A higher fluorescence indicates a higher amount of incorporation into the cells.

[2] = tested on: human umbilical cord-derived mesenchymal stem cells (UC-MSCs); test: Imaging human cells labelled with dye (microscopy); assay type: cell-based; conditions: 0.2 μM dye
Experimental: (§1) The cells were imaged to assess incorporation of the dyes according to the following procedure. Cell+dye 2 samples were prepared following the procedure in Example 4 with the following modifications: the cells were seeded with NHDF (not older than P9), human umbilical cord-derived mesenchymal stem cells (UC-MSCs) or bone marrow-derived MSCs (BM-MSCs); and the dye 2 was used in a final concentration of 0.2 μM. Before imaging, each well was washed with 1× HBSS (−) once. 100-200 μL of 1× HBSS (−) was added to each well prior to imaging to make sure the cells are not dried out. The cells were imaged on a Thermo Fisher Evos M5000 microscope equipped with the Texas Red filter. Routinely utilized conditions are (magnification, light, exposure, gain): 10× Texas Red, 22, 146, 105; 20× Texas Red, 12, 133, 64; 40× Texas Red, 36, 79, 40. Settings were held constant for all images taken on the same plate.

NHDF = test: Imaging human cells labelled with dye (microscopy); assay type: cell-based; conditions: 0.2 μM dye
Experimental: as §1

[3] = tested on: bone marrow-derived MSCs (BM-MSCs); test: Imaging human cells labelled with dye (microscopy); assay type: cell-based; conditions: 0.2 μM dye
Experimental: as §1

SMILES: CCCCCCCCCCCCCCCCCCN(C)C(=O)c1ccccc1-c1c2ccc(=[N+](CC)CC)cc-2oc2cc(N(CC)CC)ccc12.[Cl-] [Dye 2, Rhodamine B N-methyloctadecylamide]
- FLD area (EV + dye) (platelet-derived EVs; 1 hr 37° C., void peak area, 562 nm/583 nm (Ex/Em)): 2493643
- Area FLD/Area UV (EV + dye) (platelet-derived EVs; higher ratio = greater incorporation): 4.50
- FLD [1]: 123449
- labelling of cells (microscopy, FIG. 3(b)) [2]: capable of labelling
- labelling of cells (microscopy, FIG. 3(a)) (NHDF): capable of labelling
- labelling of cells (microscopy, FIG. 3(c)) [3]: capable of labelling
